Where a name gives a salt, the structure may show the parent alone.
Biological target: native histamine H3 receptor (Rattus norvegicus, UniProt Q9QYN8)
Assay: in vitro affinity assay, specific binding of [3H]-N-α-methylhistamine, adult rat brain membrane preparation
Conditions: adult rat brain membranes, read-out: Ki with regard to the H3 receptors
Source text: Thus, the compounds of the invention of formula (I) were subjected to an in vitro affinity assay on the native histamine H3 receptor in an adult rat brain membrane preparation by the specific binding of [^3H]-N-α-methylhistamine to this receptor, according to methods described by Korte, A. et al. in Biochem. Biophys. Res. Commun., 168, 979-986 (1990) and by West, R. E. Jr. et al. in Mol. Pharmacol., 38, 610-613 (1990).

Sequence of native histamine H3 receptor (Q9QYN8 1-397 isoform Q9QYN8-3): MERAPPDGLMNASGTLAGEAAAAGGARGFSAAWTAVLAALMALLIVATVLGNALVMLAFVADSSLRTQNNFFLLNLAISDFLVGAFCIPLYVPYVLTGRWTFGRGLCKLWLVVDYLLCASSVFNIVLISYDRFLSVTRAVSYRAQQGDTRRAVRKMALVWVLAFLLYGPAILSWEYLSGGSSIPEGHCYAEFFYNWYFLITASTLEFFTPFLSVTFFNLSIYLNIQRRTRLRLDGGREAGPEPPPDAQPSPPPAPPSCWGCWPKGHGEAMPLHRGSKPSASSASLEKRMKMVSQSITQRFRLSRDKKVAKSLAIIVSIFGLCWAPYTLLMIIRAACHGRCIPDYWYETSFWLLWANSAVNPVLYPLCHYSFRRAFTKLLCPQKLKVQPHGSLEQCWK

| SMILES | Ki [nM] |
| --- | --- |
| CN1CCCC1CCOc1ccc2c(c1)CN(CC1CCCCC1)CC2 (stereo not drawn) [Compound 5, 2-(cyclohexylmethyl)-7-[2-(1-methylpyrrolidin-2-yl)ethoxy]-1,2,3,4-tetrahydroisoquinoline] | 0.1 |

Biological target: T1, human histamine H3 receptor (Homo sapiens, UniProt Q9Y5N1)
T1 construct: expressed in transfected cells; host or cells: CHO cells
Assay: cAMP formation assay, inhibition of R-α-methylhistamine agonism, receptor transfected into CHO cells (EIA kit)
Assay type: cell-based
Conditions: EIA kit (Amersham)
Source text: The compounds of the invention of formula (I) were also subjected to a cAMP formation assay on the human histamine H3 receptor transfected into CHO cells by the inhibition of the agonism brought about by the specific binding of R-α-methylhistamine to this receptor, according to the methods described by Lovenberg, T. W. et al. in J. Pharmacol. Exp. Ther., 293, 771-778 (2000).

T1 sequence (Q9Y5N1 whole entry): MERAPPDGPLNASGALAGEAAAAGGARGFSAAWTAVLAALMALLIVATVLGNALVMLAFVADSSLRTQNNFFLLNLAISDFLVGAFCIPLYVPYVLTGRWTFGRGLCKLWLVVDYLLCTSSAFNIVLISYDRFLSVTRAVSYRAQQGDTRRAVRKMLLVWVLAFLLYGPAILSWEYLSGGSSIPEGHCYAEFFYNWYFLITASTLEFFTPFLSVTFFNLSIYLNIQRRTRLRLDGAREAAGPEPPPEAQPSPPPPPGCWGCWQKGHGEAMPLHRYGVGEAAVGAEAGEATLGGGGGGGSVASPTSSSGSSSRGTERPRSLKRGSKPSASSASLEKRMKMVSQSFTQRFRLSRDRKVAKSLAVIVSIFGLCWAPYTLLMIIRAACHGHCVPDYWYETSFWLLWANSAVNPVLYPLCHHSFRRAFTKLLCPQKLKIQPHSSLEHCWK

| SMILES | IC50 [nM] |
| --- | --- |
| CN1CCCC1CCOc1ccc2c(c1)CN(CC1CCCCC1)CC2 (stereo not drawn) [Compound 5, 2-(cyclohexylmethyl)-7-[2-(1-methylpyrrolidin-2-yl)ethoxy]-1,2,3,4-tetrahydroisoquinoline] | < 10 |

System: not given
Assay: not given
Conditions: not given

| SMILES | melting point [°C] |
| --- | --- |
| CCCN1CCc2ccc(OCCC3CCCCN3C)cc2C1 (stereo not drawn) (as salt: hydrochloride) | 186 to 190 |
| CN1CCC[C@@H]1CCOc1ccc2c(c1)CN(CC1CCCCC1)CC2 (as salt: hydrochloride) [Compound 6, 2-(cyclohexylmethyl)-7-{2-[(2R)-1-methylpyrrolidin-2-yl]ethoxy}-1,2,3,4-tetrahydroisoquinoline] | 190 to 200 |
| CN1CCC[C@@H]1CCOc1ccc2c3c(ccc2c1)CCN(CC1CCCCC1)C3 (as salt: hydrochloride) [Compound 14, 2-(cyclohexylmethyl)-8-{2-[(2R)-1-methylpyrrolidin-2-yl]ethoxy}-1,2,3,4-tetrahydrobenzo[h]isoquinoline] | 274 to 277 |
| CN1CCC[C@H]1CCOc1ccc2c(c1)CN(CC1CCCCC1)CC2 (as salt: hydrochloride) [Compound 18, 2-(Cyclohexylmethyl)-7-(2-[(2S)-1-methylpyrrolidin-2-yl]ethoxy)-1,2,3,4-tetrahydroisoquinoline hydrochloride (1:2)] | 238 to 241 |
| CN1CCC[C@H]1CCOc1ccc2c(c1)CN(CC1CCCCC1)CC2 (as salt: oxalate) [Compound 7, 2-(cyclohexylmethyl)-7-{2-[(2S)-1-methylpyrrolidin-2-yl]ethoxy}-1,2,3,4-tetrahydroisoquinoline] | 195 to 199 |
| CN1CCCCC1CCOc1ccc2c(c1)CN(CC1CCCCC1)CC2 (stereo not drawn) (as salt: oxalate) [Compound 9, 2-(cyclohexylmethyl)-7-[2-(1-methylpiperidin-2-yl)ethoxy]-1,2,3,4-tetrahydroisoquinoline] | 101 to 111 |
| CN1CCCC1CCOc1ccc2c(c1)CN(Cc1ccccc1)CC2 (stereo not drawn) (as salt: oxalate) [Compound 10, 2-benzyl-7-[2-(1-methylpyrrolidin-2-yl)ethoxy]-1,2,3,4-tetrahydroisoquinoline] | 143 to 150 |
| CN1CCCC(Oc2ccc3c(c2)CN(Cc2ccccc2)CC3)CC1 (stereo not drawn) (as salt: oxalate) [Compound 11, 2-benzyl-7-[(1-methylazepan-4-yl)oxy]-1,2,3,4-tetrahydroisoquinoline] | 108 to 116 |
| CN1CCCC(Oc2ccc3c(c2)CN(Cc2cccs2)CC3)CC1 (stereo not drawn) (as salt: oxalate) [Compound 12, 7-[(1-methylazepan-4-yl)oxy]-2-(2-thienylmethyl)-1,2,3,4-tetrahydroisoquinoline] | 98 to 110 |
| CN1CCC[C@H]1CCOc1ccc2c3c(ccc2c1)CCN(CC1CCCCC1)C3 (as salt: oxalate) [Compound 15, 2-(cyclohexylmethyl)-8-{2-[(2S)-1-methylpyrrolidin-2-yl]ethoxy}-1,2,3,4-tetrahydrobenzo[h]isoquinoline] | 271 to 274 |
| CN1CCCC(Oc2ccc3c4c(ccc3c2)CCN(CC2CCCCC2)C4)CC1 (stereo not drawn) (as salt: oxalate) [Compound 16, 2-(cyclohexylmethyl)-8-[(1-methylazepan-4-yl)oxy]-1,2,3,4-tetrahydrobenzo[h]isoquinoline] | 77 to 82 |
| CN1CCCCC1CCOc1ccc2c3c(ccc2c1)CCN(CC1CCCCC1)C3 (stereo not drawn) (as salt: oxalate) [Compound 17, 2-(cyclohexylmethyl)-8-[2-(1-methylpiperidin-2-yl)ethoxy]-1,2,3,4-tetrahydrobenzo[h]isoquinoline] | 124 to 127 |
| CC(C)CN1CCc2ccc(OCCC3CCCN3C)cc2C1 (stereo not drawn) (as salt: tartrate) | 77 to 80 |
| CCCCN1CCc2ccc(OC3CCCN(C)CC3)cc2C1 (stereo not drawn) (as salt: tartrate) | 96 to 107 |
| CCCCN1CCc2ccc(OCCC3CCCN3C)cc2C1 (stereo not drawn) (as salt: tartrate) | 95 to 105 |
| CCCN1CCc2ccc(OC3CCCN(C)CC3)cc2C1 (stereo not drawn) (as salt: tartrate) | 76 to 97 |
| CCCN1CCc2ccc(OCCC3CCCN3C)cc2C1 (stereo not drawn) (as salt: tartrate) | 66 to 91 |
| CC(C)CCN1CCc2ccc(OCCC3CCCN3C)cc2C1 (stereo not drawn) (as salt: tartrate) [Compound 3, 2-(3-methylbutyl)-7-[2-(1-methylpyrrolidin-2-yl)ethoxy]-1,2,3,4-tetrahydroisoquinoline] | 61 to 65 |
| CC(C)CCN1CCc2ccc(OC3CCCN(C)CC3)cc2C1 (stereo not drawn) (as salt: tartrate) [Compound 4, 7-[(1-methylazepan-4-yl)oxy]-2-(3-methylbutyl)-1,2,3,4-tetrahydroisoquinoline] | 60 to 70 |

Reference: patent US7678807B2, “Isoquinoline and benzo[H] isoquinoline derivatives, preparation and therapeutic use thereof as antagonists of the histamine H3 receptor” (sanofi-aventis, priority 2005, dated 2010)
